Results published in ChEMBL document CHEMBL1201862, “PubChem BioAssay data set” (2004).
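In this assay, cells in 96-well plates receive the compound at five concentrations for 48 hours. Endpoints are linearly interpolated between the surrounding concentrations. GI50 marks 50% less growth.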 Active and inactive are the calls of the source. Cut-off read from the data, not from the text of the source: active = GI50 up to about 1.1 µM and inactive = higher.

Legend:
Assay in all cases: NCI-60 cell line screen, 48 h
SK-MEL-2 = tested on: SK-MEL-2
MDA-MB-435 = tested on: MDA-MB-435
UACC-257 = tested on: UACC-257
OVCAR-4 = tested on: OVCAR-4
PC-3 = tested on: PC-3
RXF 393 = tested on: RXF 393
SK-OV-3 = tested on: SK-OV-3
SW-620 = tested on: SW-620
HOP-62 = tested on: HOP-62
UO-31 = tested on: UO-31
HT-29 = tested on: HT-29
UACC-62 = tested on: UACC-62
A498 = tested on: A498
OVCAR-8 = tested on: OVCAR-8
SF-295 = tested on: SF-295
HCC 2998 = tested on: HCC 2998
KM12 = tested on: KM12
Malme-3M = tested on: Malme-3M
EKVX = tested on: EKVX
NCI/ADR-RES = tested on: NCI/ADR-RES

## COc1cc2cc(C(=O)N3C[C@H](CCl)c4c3cc(N)c3ccccc43)[nH]c2c(OC)c1OC
SK-MEL-2
  GI50: 2.05 µM (inactive)
MDA-MB-435
  GI50: 0.00577 µM (active)
UACC-257
  GI50: 1.6 µM (inactive)
OVCAR-4
  GI50: > 10 µM (inactive)
PC-3
  GI50: 0.0507 µM (active)
RXF 393
  GI50: 0.571 µM (active)
SK-OV-3
  GI50: 0.22 µM (active)
SW-620
  GI50: 0.0233 µM (active)
HOP-62
  GI50: 3.05 µM (inactive)
UO-31
  GI50: 0.005 µM (active)
HT-29
  GI50: 0.00296 µM (active)
UACC-62
  GI50: 2.44 µM (inactive)
A498
  GI50: 0.0075 µM (active)
OVCAR-8
  GI50: 0.447 µM (active)
SF-295
  GI50: 2.61 µM (inactive)
HCC 2998
  GI50: 1.93 µM (inactive)
KM12
  GI50: 0.00187 µM (active)
Malme-3M
  GI50: 0.005 µM (active)
EKVX
  GI50: 0.0103 µM (active)
NCI/ADR-RES
  GI50: 0.00791 µM (active)

## O=C(O)c1cc(/N=C/c2ccccc2O)cc(C(=O)O)c1
SK-MEL-2
  GI50: > 100 µM (inactive)
MDA-MB-435
  GI50: > 100 µM (inactive)
UACC-257
  GI50: > 100 µM (inactive)
OVCAR-4
  GI50: > 100 µM (inactive)
PC-3
  GI50: > 100 µM (inactive)
RXF 393
  GI50: > 100 µM (inactive)
SK-OV-3
  GI50: > 100 µM (inactive)
SW-620
  GI50: > 100 µM (inactive)
HOP-62
  GI50: > 100 µM (inactive)
UO-31
  GI50: > 100 µM (inactive)
HT-29
  GI50: > 100 µM (inactive)
UACC-62
  GI50: > 100 µM (inactive)
A498
  GI50: > 100 µM (inactive)
OVCAR-8
  GI50: > 100 µM (inactive)
SF-295
  GI50: > 100 µM (inactive)
HCC 2998
  GI50: > 100 µM (inactive)
KM12
  GI50: > 100 µM (inactive)
Malme-3M
  GI50: > 100 µM (inactive)
EKVX
  GI50: > 100 µM (inactive)
NCI/ADR-RES
  GI50: > 100 µM (inactive)

## CCCCCNc1nonc1N
SK-MEL-2
  GI50: > 100 µM (inactive)
MDA-MB-435
  GI50: > 100 µM (inactive)
UACC-257
  GI50: > 100 µM (inactive)
OVCAR-4
  GI50: > 88.3 µM (inactive)
PC-3
  GI50: > 100 µM (inactive)
RXF 393
  GI50: > 100 µM (inactive)
SK-OV-3
  GI50: > 100 µM (inactive)
SW-620
  GI50: > 100 µM (inactive)
HOP-62
  GI50: > 100 µM (inactive)
UO-31
  GI50: > 100 µM (inactive)
HT-29
  GI50: > 100 µM (inactive)
UACC-62
  GI50: > 100 µM (inactive)
A498
  GI50: > 84.9 µM (inactive)
OVCAR-8
  GI50: > 100 µM (inactive)
SF-295
  GI50: > 100 µM (inactive)
HCC 2998
  GI50: > 100 µM (inactive)
KM12
  GI50: > 100 µM (inactive)
Malme-3M
  GI50: > 100 µM (inactive)
EKVX
  GI50: > 100 µM (inactive)
NCI/ADR-RES
  GI50: > 100 µM (inactive)

## Cc1ccc2[nH]c3c(c2c1)CCC/C3=N/N=C(N)N
SK-MEL-2
  GI50: 1.69 µM (inactive)
MDA-MB-435
  GI50: 1.72 µM (inactive)
UACC-257
  GI50: 2.51 µM (inactive)
OVCAR-4
  GI50: 2.76 µM (inactive)
PC-3
  GI50: 2.64 µM (inactive)
RXF 393
  GI50: 2.15 µM (inactive)
SK-OV-3
  GI50: 19.1 µM (inactive)
SW-620
  GI50: 3.2 µM (inactive)
HOP-62
  GI50: 1.91 µM (inactive)
UO-31
  GI50: 1.95 µM (inactive)
HT-29
  GI50: 1.64 µM (inactive)
UACC-62
  GI50: 2.16 µM (inactive)
A498
  GI50: 7.14 µM (inactive)
OVCAR-8
  GI50: 1.91 µM (inactive)
SF-295
  GI50: 1.65 µM (inactive)
HCC 2998
  GI50: 1.7 µM (inactive)
KM12
  GI50: 1.63 µM (inactive)
Malme-3M
  GI50: 2.11 µM (inactive)
EKVX
  GI50: 1.92 µM (inactive)
NCI/ADR-RES
  GI50: 1.66 µM (inactive)

## COc1cc(/C=C2/CCCc3ccccc3C2=O)cc(OC)c1OC
SK-MEL-2
  GI50: 20.6 µM (inactive)
MDA-MB-435
  GI50: 7.85 µM (inactive)
UACC-257
  GI50: 12.9 µM (inactive)
OVCAR-4
  GI50: 17.2 µM (inactive)
PC-3
  GI50: 10.1 µM (inactive)
RXF 393
  GI50: 28.9 µM (inactive)
SK-OV-3
  GI50: 25.5 µM (inactive)
SW-620
  GI50: 22.4 µM (inactive)
HOP-62
  GI50: 24.2 µM (inactive)
UO-31
  GI50: 14.6 µM (inactive)
HT-29
  GI50: 17.5 µM (inactive)
UACC-62
  GI50: 16.4 µM (inactive)
A498
  GI50: 7.89 µM (inactive)
OVCAR-8
  GI50: 13.7 µM (inactive)
SF-295
  GI50: 18.4 µM (inactive)
HCC 2998
  GI50: 22.5 µM (inactive)
KM12
  GI50: 11.7 µM (inactive)
Malme-3M
  GI50: 12.7 µM (inactive)
EKVX
  GI50: 17.6 µM (inactive)
NCI/ADR-RES
  GI50: 9.2 µM (inactive)

## N#CC(CCN1CCC(Nc2ccccc2)(c2nnnn2C2CCCCC2)CC1)(c1ccccc1)c1ccccc1
SK-MEL-2
  GI50: > 100 µM (inactive)
MDA-MB-435
  GI50: > 100 µM (inactive)
UACC-257
  GI50: > 100 µM (inactive)
OVCAR-4
  GI50: > 100 µM (inactive)
PC-3
  GI50: > 100 µM (inactive)
RXF 393
  GI50: > 100 µM (inactive)
SK-OV-3
  GI50: > 100 µM (inactive)
SW-620
  GI50: > 100 µM (inactive)
HOP-62
  GI50: > 100 µM (inactive)
UO-31
  GI50: > 100 µM (inactive)
HT-29
  GI50: > 100 µM (inactive)
UACC-62
  GI50: > 100 µM (inactive)
A498
  GI50: > 100 µM (inactive)
OVCAR-8
  GI50: > 100 µM (inactive)
SF-295
  GI50: > 100 µM (inactive)
HCC 2998
  GI50: > 100 µM (inactive)
KM12
  GI50: > 100 µM (inactive)
Malme-3M
  GI50: > 100 µM (inactive)
EKVX
  GI50: > 100 µM (inactive)
NCI/ADR-RES
  GI50: > 100 µM (inactive)

## CCCC(=O)OCC(COC(=O)CCC)OC(=O)CCC [TRIBUTYRIN]
SK-MEL-2
  GI50: 24.2 µM (inactive)
MDA-MB-435
  GI50: 85.7 µM (inactive)
UACC-257
  GI50: 42.2 µM (inactive)
OVCAR-4
  GI50: > 100 µM (inactive)
PC-3
  GI50: 99.3 µM (inactive)
RXF 393
  GI50: > 100 µM (inactive)
SK-OV-3
  GI50: 61.2 µM (inactive)
SW-620
  GI50: > 100 µM (inactive)
HOP-62
  GI50: > 100 µM (inactive)
UO-31
  GI50: 34.4 µM (inactive)
HT-29
  GI50: > 100 µM (inactive)
UACC-62
  GI50: 58.3 µM (inactive)
A498
  GI50: > 100 µM (inactive)
OVCAR-8
  GI50: 62.4 µM (inactive)
SF-295
  GI50: > 100 µM (inactive)
HCC 2998
  GI50: > 100 µM (inactive)
KM12
  GI50: > 100 µM (inactive)
Malme-3M
  GI50: 41.2 µM (inactive)
EKVX
  GI50: > 100 µM (inactive)
NCI/ADR-RES
  GI50: 20.1 µM (inactive)
